Data as given in patent US7300946B2, “N-(substituted arylmethyl)-4-(disubstituted methyl) piperidines and pyridines” (Bayer CropScience AG, priority 2002, dated 2007).

Tested on: tobacco budworm (Heliothis virescens [Fabricius])
Assay: surface-treated diet test against the tobacco budworm
Format: in vivo
Settings: tobacco budworm second instar larvae, 0.25 millimoles of candidate insecticide on the surface of the diet, five-day exposure; for Percent Mortality: compared to total number of insects infested; for Percent Growth Inhibition: inhibition of insect weight relative to untreated controls
Procedure, shortened: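 Wheat germ artificial diet surface-treated with 40 µL of 50 mM DMSO stock diluted 1:7 in 1:1 water/acetone (0.25 millimolar on diet), or sub-multiples for rate tests. One second-instar larva per well, 25° C, 60% RH, 5 days; percent weight inhibition vs DMSO controls and percent mortality.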

Row | SMILES | Percent Mortality | Percent Growth Inhibition | Percent Mortality (surface-treated diet) | Percent Growth Inhibition (surface-treated diet)
1 | O=C(Nc1cc(F)cc(F)c1)OC(c1ccc(Cl)cc1Cl)C1CCN(Cc2ccc(Oc3ncccn3)cc2)CC1 (stereo not drawn) [Compound 720] | 100% | 100% | – | –
2 | COc1ccc(NC(=O)OC(c2ccc(C(F)(F)F)cc2)C2CCN(Cc3ccc(Oc4ccccn4)cc3)CC2)cc1F (stereo not drawn) [Compound 700] | – | – | 100% | 100%
3 | O=C(Nc1cc(F)cc(F)c1)OC(c1ccc(C(F)(F)F)cc1)C1CCN(Cc2ccc(NC3=NCCO3)cc2)CC1 (stereo not drawn) [Compound 563] | – | – | 0% | 96%
4 | CNC(=O)OC(c1ccc(C(F)(F)F)cc1)C1CCN(Cc2ccc(Oc3ccccn3)cc2)CC1 (stereo not drawn) [Compound 771] | 17% | 72% | – | –
5 | CCON=Cc1ccc(CN2CCC(C(OC(=O)Nc3ccc(Cl)cc3)c3ccc(OC(F)(F)F)cc3)CC2)cc1 (stereo not drawn) [Compound 537] | – | – | 100% | 100%
6 | O=C(Nc1cc(F)cc(F)c1)OC(c1ccc(C(F)(F)F)cc1)C1CC[N+]([O-])(Cc2ccc(Oc3ncc(Cl)cc3Cl)cc2)CC1 (stereo not drawn) [Compound 758] | 100% | 100% | – | –
7 | O=C(Nc1ccc(C(F)(F)F)cc1)OC(c1ccc(OC(F)(F)F)cc1)C1CCN(Cc2ccc(Oc3ccccn3)cc2)CC1 (stereo not drawn) [Compound 246] | – | – | 100% | 100%
8 | C#CCON=Cc1ccc(C[N+]2([O-])CCC(C(OC(=O)Nc3cc(F)cc(F)c3)c3ccc(C(F)(F)F)cc3)CC2)cc1 (stereo not drawn) [Compound 744] | 100% | 100% | – | –
9 | Fc1ccc(C(=C2CCN(Cc3ccccc3)CC2)c2ccc(C(F)(F)F)cc2)cc1 [Compound 31] | – | – | 17% | 99%
10 | CCCOc1ccc(CN2CCC(C(OC(=O)Nc3cccc(C(F)(F)F)c3)c3ccc(Cl)c(Cl)c3)CC2)cc1 (stereo not drawn) [Compound 483] | – | – | 100% | 100%
11 | O=C(Nc1ccc(C(F)(F)F)cc1)OC(c1ccc(Cl)cc1)C1CCN(Cc2ccc(Oc3ccccn3)cc2)CC1 (stereo not drawn) [Compound 635] | – | – | 100% | 100%
12 | Cn1nnc(-c2ccc(CN3CCC(C(NC(=O)c4cccc(Cl)c4)c4ccc(OC(F)(F)F)cc4)CC3)cc2)n1 (stereo not drawn) [Compound 323] | – | – | 67% | 98%
13 | [O-][N+]1(Cc2ccc(Oc3ccccc3F)cc2)CCC(=C(c2ccc(C(F)(F)F)cc2)c2ccc(C(F)(F)F)cc2)CC1 (stereo not drawn) [Compound 839] | 100% | 100% | – | –
14 | FC(F)(F)c1ccc(C(Oc2cncc(Cl)c2)C2CCN(Cc3ccc(Oc4ccccn4)cc3)CC2)cc1 (stereo not drawn) [Compound 443] | – | – | 33% | 100%
15 | CC(C)NC(=O)OC(c1ccc(C(F)(F)F)cc1)C1CCN(Cc2ccc(Oc3ccccn3)cc2)CC1 (stereo not drawn) [Compound 776] | 100% | 100% | – | –
16 | O=C(Oc1ccccc1)OC(c1ccc(C(F)(F)F)cc1)C1CCN(Cc2ccc(Oc3ccccn3)cc2)CC1 (stereo not drawn) [Compound 661] | – | – | 0% | 91%
17 | O=C(NCc1ccccc1Cl)OC(c1ccc(C(F)(F)F)cc1)C1CCN(Cc2ccc(Oc3ccccn3)cc2)CC1 (stereo not drawn) [Compound 663] | – | – | 50% | 100%
18 | O=C(Nc1ccc(C(F)(F)F)nc1)OC(c1ccc(C(F)(F)F)cc1)C1CCN(Cc2ccc(Oc3ccccn3)cc2)CC1 (stereo not drawn) [Compound 448] | – | – | 100% | 100%
19 | CCn1nnc(-c2ccc(CN3CCC(C(OC(=O)Nc4cc(F)cc(F)c4)c4ccc(-c5ccccc5)cc4)CC3)cc2)n1 (stereo not drawn) [Compound 614] | – | – | 16% | 99%
20 | Fc1cc(F)cc(NC(=S)OC(c2ccc(C(F)(F)F)cc2)C2CCN(Cc3ccc(Oc4ccccn4)cc3)CC2)c1 (stereo not drawn) [Compound 681] | – | – | 100% | 100%
21 | Cn1nnc(-c2ccc(CN3CCC(C(OC(=O)Nc4cccc(F)c4)c4ccc(OC(F)(F)F)cc4)CC3)cc2)n1 (stereo not drawn) [Compound 273] | – | – | 100% | 100%
22 | O=C(Nc1c(F)cccc1F)OC(c1ccc(C(F)(F)F)cc1)C1CCN(Cc2ccc(Oc3ccccn3)cc2)CC1 (stereo not drawn) [Compound 241] | – | – | 100% | 100%
23 | COc1ccc(CN2CCC(C(OC(=O)Nc3ccc(F)cc3)c3ccc(OC(F)(F)F)cc3)CC2)cc1 (stereo not drawn) [Compound 468] | – | – | 33% | 100%
24 | O=C(Nc1ccc(F)c(F)c1F)OC(c1ccc(C(F)(F)F)cc1)C1CCN(Cc2ccc(Oc3ccccn3)cc2)CC1 (stereo not drawn) [Compound 242] | – | – | 100% | 100%

Row | SMILES | Percent Mortality | Percent Growth Inhibition | Percent Mortality (surface-treated diet) | Percent Growth Inhibition (surface-treated diet)
25 | O=C(Nc1ccc(Cl)cc1)OC(c1ccc(F)cc1)C1CCN(Cc2ccc(Oc3ncccn3)cc2)CC1 (stereo not drawn) [Compound 715] | 100% | 100% | – | –
26 | CC(C)OC(=O)Nc1ccc(C[N+]2([O-])CCC(=C(c3ccc(Cl)c(F)c3)c3ccc(Cl)c(F)c3)CC2)cc1 (stereo not drawn) [Compound 834] | 100% | 100% | – | –
27 | O=C(Nc1cc(F)cc(F)c1)OC(c1ccc(C(F)(F)F)cc1)C1CC[N+]([O-])(Cc2ccc(Oc3cccc(Cl)n3)cc2)CC1 (stereo not drawn) [Compound 757] | 100% | 100% | – | –
28 | Cc1cc(C)cc(NC(=O)OC(c2ccc(Cl)cc2)C2CCN(Cc3ccc(Oc4ccccn4)cc3)CC2)c1 (stereo not drawn) [Compound 632] | – | – | 100% | 100%
29 | Cn1nnc(-c2ccc(CN3CCC(C(Oc4ccc(Cl)cn4)c4ccc(C(F)(F)F)cc4)CC3)cc2)n1 (stereo not drawn) [Compound 435] | – | – | 100% | 100%
30 | CCn1nnc(-c2ccc(CN3CCC(C(OC(=O)Nc4cc(Cl)ccc4Cl)c4ccc(C(F)(F)F)cc4)CC3)cc2)n1 (stereo not drawn) [Compound 281] | – | – | 100% | 100%
31 | Cn1nnc(-c2ccc(CN3CCC(C(NCc4ccc(F)cc4)c4ccc(OC(F)(F)F)cc4)CC3)cc2)n1 (stereo not drawn) [Compound 315] | – | – | 100% | 100%
32 | CCn1nnc(-c2ccc(CN3CCC(C(OC(=O)Nc4ccc(C(F)(F)F)cc4)c4ccc(Cl)c(Cl)c4)CC3)cc2)n1 (stereo not drawn) [Compound 576] | – | – | 100% | 100%
33 | Cc1cccc(CNC(=O)OC(c2ccc(C(F)(F)F)cc2)C2CCN(Cc3ccc(Oc4ccccn4)cc3)CC2)c1 (stereo not drawn) [Compound 694] | – | – | 50% | 100%
34 | CC(C)OC(=O)Nc1ccc(CN2CCC(C(OC(=O)Nc3cc(F)cc(F)c3)c3ccc(F)cc3)CC2)cc1 (stereo not drawn) [Compound 505] | – | – | 100% | 100%
35 | Cc1ccc(CNC(c2ccc(OC(F)(F)F)cc2)C2CCN(Cc3ccc(-c4nnn(C)n4)cc3)CC2)cc1 (stereo not drawn) [Compound 317] | – | – | 100% | 100%
36 | O=C(Nc1ccc(F)cc1)Oc1ccc(CN2CCC(C(OC(=O)Nc3ccc(F)cc3)c3ccc(OC(F)(F)F)cc3)CC2)cc1 (stereo not drawn) [Compound 181] | – | – | 100% | 100%
37 | O=C(Nc1ccc(Cl)cc1)OC(c1ccc(Cl)cc1Cl)C1CCN(Cc2ccc(Oc3ncccn3)cc2)CC1 (stereo not drawn) [Compound 718] | 100% | 100% | – | –
38 | CCn1nnc(-c2ccc(CN3CCC(C(OC(=O)Nc4cccc(C(F)(F)F)c4)c4ccc(OC)cc4)CC3)cc2)n1 (stereo not drawn) [Compound 605] | – | – | 100% | 100%
39 | O=C(Nc1cc(F)cc(F)c1)OC(c1ccc(C(F)(F)F)cc1)C1CCN(Cc2ccc(Oc3ncncn3)cc2)CC1 (stereo not drawn) [Compound 739] | 0% | 100% | – | –
40 | [O-][N+]1(Cc2ccc(OCC3CC3)cc2)CCC(=C(c2ccc(C(F)(F)F)cc2)c2ccc(C(F)(F)F)cc2)CC1 (stereo not drawn) [Compound 98] | – | – | 100% | 100%
41 | [O-][N+]1(Cc2ccc(Oc3ncccn3)cc2)CCC(=C(c2ccc(Cl)c(Cl)c2)c2ccc(Cl)c(Cl)c2)CC1 (stereo not drawn) [Compound 849] | 100% | 100% | – | –
42 | O=C(Nc1ccc(Cl)cc1)OC(c1ccc(Cl)cc1)C1CCN(Cc2ccc(Oc3ccccn3)cc2)CC1 (stereo not drawn) [Compound 629] | – | – | 100% | 100%
43 | O=C(Nc1cccc(C(F)(F)F)c1)OC(c1ccc(Cl)cc1)C1CCN(Cc2ccc(Oc3ccccn3)cc2)CC1 (stereo not drawn) [Compound 634] | – | – | 100% | 100%
44 | O=C(Nc1ccc(F)cc1F)OC(c1ccc(C(F)(F)F)cc1)C1CC[N+]([O-])(Cc2ccc(Oc3ncccn3)cc2)CC1 (stereo not drawn) [Compound 763] | 100% | 100% | – | –
45 | O=C(Nc1cccc(C(F)(F)F)c1)OC(c1ccc(Cl)c(Cl)c1)C1CCN(Cc2ccc(Oc3ncccn3)cc2)CC1 (stereo not drawn) [Compound 724] | 100% | 100% | – | –
46 | O=C(Nc1ccc(Cl)cc1)OC(c1ccc(C(F)(F)F)cc1)C1CCN(Cc2ccc(O)cc2)CC1 (stereo not drawn) [Compound 463] | – | – | 0% | 65%
47 | CC(C)OC(=O)Nc1ccc(C[N+]2([O-])CCC(=C(c3ccc(C(F)(F)F)cc3)c3ccc(C(F)(F)F)cc3)CC2)cc1 (stereo not drawn) [Compound 103] | – | – | 100% | 100%
48 | [O-][N+]1(Cc2ccc(Oc3ccccn3)cc2)CCC(=C(c2ccc(Cl)cc2)c2ccc(Cl)cc2)CC1 (stereo not drawn) [Compound 841] | 100% | 100% | – | –
